Columns and labels:
human D2R/β-arrestin [1] = molecular target: T1, human D2R/β-arrestin (Homo sapiens (Human), UniProt P14416); test: β-arrestin agonist assay (PathHunter); format: cell-based; settings: CHO-K1 cells expressing human D2R/β-arrestin; agonist mode
Description: The detection reagent (9.6 μL, Buffer:Emerald II:Galactor-Star in a 19:5:1 ratio, i.e., 14.06 mL:3.7 mL:0.74 mL=18.5 mL) was then added to the agonist plates.

human D2R/β-arrestin [2] = molecular target: T1, human D2R/β-arrestin; test: Gi/cAMP agonist assay (Lance Ultra cAMP, forskolin); format: cell-based; settings: CHO-K1 cells expressing human D2R/β-arrestin; agonist mode, 2.5 μM forskolin
Description: Eu-cAMP tracer solution (10 μl, PerkinElmer, 360 μl of Tracer in 17.64 ml kit buffer) and ULight-anti-cAMP solution (10 μl, 120 μL antibody in 17.88 ml kit buffer) was then added to each well.

human D2R/β-arrestin [3] = molecular target: T1, human D2R/β-arrestin; test: cell-based; settings: β-arrestin Antagonist, CHO-K1 cells expressing human D2R/β-arrestin; antagonist mode, quinpirole 130 nM
human D2R/β-arrestin [4] = molecular target: T1, human D2R/β-arrestin; test: cell-based; settings: cAMP Antagonist, CHO-K1 cells expressing human D2R/β-arrestin; antagonist mode, 2.5 μM forskolin and 2.7 nM quinpirole
Description: Cells were prepared for assays by growing cultures for up to 2 weeks (from about 6-20 passages). A vial of frozen cells was thawed in a water bath held at 37° C. The cells were then transferred into a 50 ml tube with 10 ml growth media. The vial was rinsed with growth media and the contents transferred to the 50 ml tube. The 50 ml tube was centrifuged at 1200 rpm for 5 minutes at room temperature. […] When the cells reached about 90% confluence (approximately 3 days between passages), the cells were passaged and used for either the agonist or antagonist assays as described below.
The cells were prepared for Gi/cAMP assays as described above. The assays were performed using a PE Lance Ultra cAMP kit (TRF0263). The cells were grown on 225 mm dishes, then washed once with 1×PBS (Cellgro) before digestion with 2.5 ml 1× Detachment reagent (DRX 92-0009) for about 2 minutes. PBS (20 ml) was then added to the plate, and the cells were transferred to a 50 ml centrifuge tube, and centrifuged at room temperature using BD Dynac III, at 1200 rpm for 5 minutes. […] The plates were then incubated at room temperature for about 30 minutes before addition of Eu-cAMP tracer solution (10 μl, PerkinElmer) and then ULight-anti-cAMP solution (10 μl) to each well.

T1 sequence (P14416 whole entry): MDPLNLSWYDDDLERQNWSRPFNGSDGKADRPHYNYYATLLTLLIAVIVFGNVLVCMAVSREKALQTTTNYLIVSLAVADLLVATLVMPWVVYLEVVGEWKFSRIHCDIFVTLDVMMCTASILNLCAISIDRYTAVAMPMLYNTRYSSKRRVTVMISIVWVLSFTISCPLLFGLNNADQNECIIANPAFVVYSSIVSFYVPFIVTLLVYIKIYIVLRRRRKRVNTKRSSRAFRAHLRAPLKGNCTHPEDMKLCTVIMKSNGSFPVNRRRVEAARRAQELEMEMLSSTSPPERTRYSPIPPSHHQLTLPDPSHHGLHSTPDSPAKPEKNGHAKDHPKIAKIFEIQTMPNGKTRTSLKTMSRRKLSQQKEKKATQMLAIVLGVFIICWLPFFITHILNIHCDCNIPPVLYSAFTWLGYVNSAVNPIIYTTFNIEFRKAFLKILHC

Structure (SMILES)	EC50 (human D2R/β-arrestin [1]) [µM]	EC50 (human D2R/β-arrestin [2]) [µM]	IC50 (human D2R/β-arrestin [3]) [µM]	IC50 (human D2R/β-arrestin [4]) [µM]
CC1(O)CCN(C2CCCN(c3ccccc3C(F)(F)F)C2)CC1 (stereo not shown) [Compound 177, 4-methyl-1′-(2-(trifluoromethyl)phenyl)-[1,3′-bipiperidin]-4-ol]	> 30	> 30	1 to 10	1 to 10
CC1(Oc2cccc(C(F)(F)F)c2)CCCN(CCOc2ccccc2)C1 (stereo not shown) [Example 100, 3-methyl-1-(2-phenoxyethyl)-3-(3-(trifluoromethyl)phenoxy)piperidine]	> 30	> 30	1 to 10	0.1 to 1
OC1(Cc2ccccc2F)CCN(CCOc2ccccc2)C1 (stereo not shown) [Compound 300, 3-(2-fluorobenzyl)-1-(2-phenoxyethyl)pyrrolidin-3-ol, reference compound]	> 30	0.1 to 1	10 to 30	> 30
CC1(Oc2ccc(Cl)cc2Cl)CCN(CCOc2ccccc2)C1 (stereo not shown) [Example 48, 3-(2,4-dichlorophenoxy)-3-methyl-1-(2-phenoxyethyl)pyrrolidine]	> 30	< 0.1	10 to 30	> 30
CC(C)c1ccccc1OCCN1CCC(C)(Oc2ccccc2)CC1 [Example 71, 1-(2-(2-isopropylphenoxy)ethyl)-4-methyl-4-phenoxypiperidine]	> 30	> 30	0.1 to 1	0.1 to 1
CN(C)c1ccccc1OCCN1CCC(C)(Oc2ccccc2)CC1 [Example 111, N,N-dimethyl-2-(2-(4-methyl-4-phenoxypiperidin-1-yl)ethoxy)aniline]	> 30	> 30	1 to 10	0.1 to 1
CC1(Oc2ccc(Cl)cc2)CCN(CCOc2cccc(-c3ccccc3)c2)C1 (stereo not shown) [Compound 37, 1-(2-([1,1′-biphenyl]-3-yloxy)ethyl)-3-(4-chlorophenoxy)-3-methylpyrrolidine]	> 30	> 30	1 to 10	0.1 to 1
CC1(Oc2cccc(C(F)(F)F)c2)CCCN(CCOc2ccccc2Cl)C1 (stereo not shown) [Example 63, 1-(2-(2-Chlorophenoxy)ethyl)-3-methyl-3-(3-(trifluoromethyl)phenoxy) piperidine]	> 30	> 30	1 to 10	1 to 10
C#CC1(O)CCN(CCOc2ccccc2C(F)(F)F)CC1 [Compound 302, 4-ethynyl-1-(2-(2-(trifluoromethyl)phenoxy)ethyl)piperidin-4-ol, reference compound]	> 30	> 30	< 0.1	< 0.1
CC1(Oc2ccccc2)CCN(CCC(=O)c2ccccc2C(F)(F)F)CC1 [Compound 116, 3-(4-Methyl-4-phenoxypiperidin-1-yl)-1-(2-(trifluoromethyl)phenyl) propan-1-one]	> 30	> 30	10 to 30	1 to 10
CC1(OCc2ccccc2)CCN(CCOc2ccccc2C(F)(F)F)CC1 [Compound 126, 4-(Benzyloxy)-4-methyl-1-(2-(2-(trifluoromethyl)phenoxy)ethyl) piperidine]	> 30	> 30	< 0.1	< 0.1
FC(F)(F)c1ccccc1OCCN1CCC(=Cc2ccccc2)CC1 [Example 101, 4-benzylidene-1-(2-(2-(trifluoromethyl)phenoxy)ethyl)piperidine]	> 30	> 30	1 to 10	1 to 10
CC1(Oc2ccc(Cl)cc2)CCN(CCOc2cccc(F)c2)C1 (stereo not shown) [Compound 180, 3-(4-chlorophenoxy)-1-(2-(3-fluorophenoxy)ethyl)-3-methylpyrrolidine]	> 30	< 0.1	1 to 10	> 30
CC1(Oc2ccc(Cl)cc2)CCN(CCOc2ccc3ncsc3c2)C1 (stereo not shown) [Compound 18, 6-(2-(3-(4-chlorophenoxy)-3-methylpyrrolidin-1-yl)ethoxy)benzo[d]thiazole]	> 30	0.1 to 1	1 to 10	> 30
CC1(Oc2ccc(Cl)cc2)CCN(CCOc2ccc3cnccc3c2)C1 (stereo not shown) [Compound 33, 6-(2-(3-(4-chlorophenoxy)-3-methylpyrrolidin-1-yl)ethoxy)isoquinoline]	> 30	> 30	1 to 10	0.1 to 1
Clc1ccc(N2CCCC23CCN(CC2COc4ccccc4O2)CC3)cc1 (stereo not shown) [Compound 178, 1-(4-chlorophenyl)-8-((2,3-dihydrobenzo[b][1,4]dioxin-2-yl)methyl)-1,8-diazaspiro[4.5]decane]	> 30	> 30	< 0.1	< 0.1
OC1(c2ccccc2)CCN(CCOc2ccccc2)C1 (stereo not shown) [Example 93, 1-(2-Phenoxyethyl)-3-phenylpyrrolidin-3-ol]	> 30	0.1 to 1	1 to 10	0.1 to 1
CC1(Oc2ccc(Cl)cc2)CCN(CCn2cccc(C(F)(F)F)c2=O)CC1 [Compound 195, 1-(2-(4-(4-chlorophenoxy)-4-methylpiperidin-1-yl)ethyl)-3-(trifluoromethyl)pyridin-2(1H)-one]	> 30	> 30	> 30	> 30
FC(F)(F)c1ccccc1OCCN1CCC2(CC1)CC2c1ccc(Cl)cc1 (single isomer, unassigned) [Compound 216a, 1-(4-chlorophenyl)-6-(2-(2-(trifluoromethyl)phenoxy)ethyl)-6-azaspiro[2.5]octane]	> 30	> 30	1 to 10	1 to 10
CC(O)c1ccc(OCCN2CCC(C)(Oc3ccc(Cl)cc3)CC2)cc1 (stereo not shown) [Compound 154, 1-(4-(2-(4-(4-chlorophenoxy)-4-methylpiperidin-1-yl)ethoxy)phenyl)ethanol]	> 30	> 30	10 to 30	0.1 to 1
CC1(C(=O)NC2CC2)CCN(CC2COc3ccccc3O2)CC1 (single isomer, unassigned) [Compound 203b, N-cyclopropyl-1-((2,3-dihydrobenzo[b][1,4]dioxin-2-yl)methyl)-4-methylpiperidine-4-carboxamide]	> 30	> 30	10 to 30	10 to 30

The remaining lines, values ahead:

EC50 (human D2R/β-arrestin [1]) [µM]	EC50 (human D2R/β-arrestin [2]) [µM]	IC50 (human D2R/β-arrestin [3]) [µM]	IC50 (human D2R/β-arrestin [4]) [µM]	Structure (SMILES)
> 30	0.1 to 1	1 to 10	0.1 to 1	CC(C)Oc1ccc(F)cc1OCCN1CCC(C)(Oc2ccc(Cl)cc2)CC1 [Compound 190, 4-(4-chlorophenoxy)-1-(2-(5-fluoro-2-isopropoxyphenoxy)ethyl)-4-methylpiperidine]
0.1 to 1	0.1 to 1	0.1 to 1	> 30	CC1(Oc2ccc(Cl)cc2)CCN(CCOc2ccccc2OC(F)(F)F)CC1 [Compound 146, 4-(4-chlorophenoxy)-4-methyl-1-(2-(2-(trifluoromethoxy)phenoxy)ethyl) piperidine]
> 30	< 0.1	1 to 10	0.1 to 1	CC1(Oc2ccc(Cl)cc2)CCN(CCOc2ccc3ncoc3c2)C1 (stereo not shown) [Example 92, 6-(2-(3-(4-Chlorophenoxy)-3-methylpyrrolidin-1-yl)ethoxy)benzo[d]oxazole]
> 30	> 30	1 to 10	0.1 to 1	CNC(=O)C1(C)CCN(CCOc2ccccc2OC)CC1 [Compound 201, 1-(2-(2-methoxyphenoxy)ethyl)-N,4-dimethylpiperidine-4-carboxamide]
> 30	< 0.1	0.1 to 1	0.1 to 1	CC1(Oc2ccccc2)CCN(CCCc2ccccc2C(F)(F)F)CC1 [Compound 118, 4-Methyl-4-phenoxy-1-(3-(2-(trifluoromethyl)phenyl)propyl)piperidine]
> 30	> 30	0.1 to 1	< 0.1	CC1(Oc2ccc(Cl)cc2)CCCN(CCOc2ccccc2Cl)C1 (stereo not shown) [Example 97, 3-(4-chlorophenoxy)-1-(2-(2-chlorophenoxy)ethyl)-3-methylpiperidine]
> 30	10 to 30	10 to 30	10 to 30	CC1(Oc2ccc(Cl)cc2)CCN(CCOc2ccc(S(C)(=O)=O)cc2)CC1 [Compound 152, 4-(4-chlorophenoxy)-4-methyl-1-(2-(4-(methylsulfonyl)phenoxy)ethyl)piperidine]
1 to 10	< 0.1	> 30	> 30	COc1cccc(OCCN2CCC(C)(Oc3ccc(Cl)cc3)C2)c1 (stereo not shown) [Compound 19, 3-(4-chlorophenoxy)-1-(2-(3-methoxyphenoxy)ethyl)-3-methyl pyrrolidine]
10 to 30	1 to 10	1 to 10	> 30	CC1(Oc2ccc(Cl)cc2)CCN(CCOc2cc(Cl)ccc2C(F)(F)F)CC1 [Compound 165, 1-(2-(5-chloro-2-(trifluoromethyl)phenoxy)ethyl)-4-(4-chlorophenoxy)-4-methylpiperidine]
0.1 to 1	< 0.1	> 30	> 30	CC1(Oc2cnccn2)CCN(CCOc2ccccc2)C1 (stereo not shown) [Example 60, 2-((3-methyl-1-(2-phenoxyethyl)pyrrolidin-3-yl)oxy)pyrazine]

Source: patent US11498896B2 (The Broad Institute, Inc., priority 2014, dated 2022)
